In data set [1] the target is T1, Interleukin-1 receptor-associated kinase 4 (Homo sapiens) (UniProt Q9NWZ3).
T1 sequence (whole entry): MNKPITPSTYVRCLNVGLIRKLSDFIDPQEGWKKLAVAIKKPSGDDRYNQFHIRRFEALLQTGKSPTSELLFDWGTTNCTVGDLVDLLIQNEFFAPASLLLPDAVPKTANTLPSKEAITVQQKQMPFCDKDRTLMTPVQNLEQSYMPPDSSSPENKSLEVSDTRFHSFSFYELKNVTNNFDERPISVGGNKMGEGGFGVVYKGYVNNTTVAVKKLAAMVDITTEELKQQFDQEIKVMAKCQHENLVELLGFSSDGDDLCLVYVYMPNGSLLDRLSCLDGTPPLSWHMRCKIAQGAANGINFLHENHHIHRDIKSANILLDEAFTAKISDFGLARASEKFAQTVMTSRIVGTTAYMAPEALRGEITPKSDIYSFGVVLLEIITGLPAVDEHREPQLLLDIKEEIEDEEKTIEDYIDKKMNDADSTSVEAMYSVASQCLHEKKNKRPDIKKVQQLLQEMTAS
Put plainly: Inhibition of IRAK4 in human whole blood assessed as reduction in R848-stimulated TNF alpha production preincubated for 30 mins followed by R848 addition measured after 5 hrs.

A short description of data set [2]: Oral bioavailability in rat. Type of data set: ADME, organism-based. The settings on record: in vivo.
Data set [3] has as its target T2, Interleukin-1 receptor-associated kinase 4 (Homo sapiens, UniProt Q9NWZ3).
T2 sequence (Q9NWZ3 whole entry): T1 sequence (whole entry)
Put plainly: Inhibition of recombinant human full length GST tagged IRAK4 expressed in baculovirus infected Sf9 cells using RP7030 peptide as substrate after 30 mins in presence of ATP by fluorescence polarization assay.

Data set [4] concerns the target T3, Interleukin-1 receptor-associated kinase 4 (Rattus norvegicus, UniProt D4A7K4).
T3 sequence (D4A7K4 whole entry): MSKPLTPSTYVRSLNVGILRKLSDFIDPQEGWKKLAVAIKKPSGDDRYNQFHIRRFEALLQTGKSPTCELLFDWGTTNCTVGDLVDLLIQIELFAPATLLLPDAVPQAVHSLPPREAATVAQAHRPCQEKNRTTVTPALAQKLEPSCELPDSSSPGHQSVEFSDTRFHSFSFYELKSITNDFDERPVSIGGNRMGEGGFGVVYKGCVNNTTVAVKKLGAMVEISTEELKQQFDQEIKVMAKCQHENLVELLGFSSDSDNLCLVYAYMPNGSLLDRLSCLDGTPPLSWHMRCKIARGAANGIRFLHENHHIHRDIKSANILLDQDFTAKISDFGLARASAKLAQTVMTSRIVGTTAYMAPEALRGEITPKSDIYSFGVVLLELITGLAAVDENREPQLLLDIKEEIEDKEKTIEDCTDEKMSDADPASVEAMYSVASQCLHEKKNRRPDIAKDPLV
Put plainly: Inhibition of IRAK4 in Lewis rat whole blood assessed as reduction in R848-stimulated TNF alpha production after 4 hrs.

A short description of data set [5]: Apparent permeability in MDCK cells. It counts as ADME, cell-based, Canis lupus familiaris. To be noted: dog.
Data set [6] in a line: Clearance in rat. It counts as ADME. The settings on record: in vivo.
Data set [7] can be described thus: Half life in rat. It counts as ADME. To be noted: in vivo.
In data set [8] the test system is Rattus norvegicus. Put plainly: In-vivo inhibition of IRAK4 in po dosed Lewis rat assessed as reduction in R848-stimulated serum IL-6 secretion administered once daily pretreated for 1 hr followed by R848 challenge measured after 1.5 hrs. It counts as functional, organism-based.
In data set [9] the test system is Rattus norvegicus. Put plainly: In vivo inhibition of IRAK4 in Lewis rat assessed as reduction in R848-stimulated serum IL-6 secretion at 30 mg/kg, po administered once daily pretreated for 1 hr followed by R848 challenge measured after 1.5 hrs relative to control. Type of data set: functional.
The subject of data set [10] is Rattus norvegicus. Put plainly: In vivo inhibition of IRAK4 in Lewis rat assessed as reduction in R848-stimulated serum IL-6 secretion at 100 mg/kg, po administered once daily pretreated for 1 hr followed by R848 challenge measured after 1.5 hrs relative to control. It counts as functional.
Data set [11] has as its system Rattus norvegicus. Put plainly: Terminal plasma concentration in Lewis rat at 3 mg/kg, po administered once daily. It counts as ADME, organism-based. To be noted: in vivo, read-out: Cp(T).
The subject of data set [12] is Rattus norvegicus. Put plainly: Terminal plasma concentration in Lewis rat at 10 mg/kg, po administered once daily. Type of data set: ADME, organism-based. The settings on record: in vivo, read-out: Cp(T).
The subject of data set [13] is Rattus norvegicus. Put plainly: Terminal plasma concentration in Lewis rat at 30 mg/kg, po administered once daily. It counts as ADME, organism-based. The settings on record: in vivo, read-out: Cp(T).
In data set [14] the test system is Rattus norvegicus. Put plainly: Terminal plasma concentration in Lewis rat at 100 mg/kg, po administered once daily. It counts as ADME, organism-based. The settings on record: in vivo, read-out: Cp(T).
Data set [15] has as its system Rattus norvegicus. Put plainly: In vivo inhibition of IRAK4 in Lewis rat assessed as reduction in R848-stimulated serum IL-6 secretion at 10 mg/kg, po administered once daily pretreated for 1 hr followed by R848 challenge measured after 1.5 hrs relative to control. Type of data set: functional.
Data set [16] concerns Rattus norvegicus. The data set is described as follows: In vivo inhibition of IRAK4 in Lewis rat assessed as reduction in R848-stimulated serum IL-6 secretion at 3 mg/kg, po administered once daily pretreated for 1 hr followed by R848 challenge measured after 1.5 hrs relative to control. It counts as functional.

Consider `N#Cc1ccc2ncnc(N[C@H]3CC[C@H](N4CCC(F)CC4)CC3)c2c1`, for which the IC50 in data set [1] amounted to 0.1 µM.

As to `CN(C)[C@H]1CC[C@H](Nc2ncnc3cc(F)c(F)cc23)CC1`, in data set [1], the IC50 was above 10 µM.

In the case of `N#Cc1ccc2ncnc(N[C@H]3CC[C@H](N4CCOCC4)CC3)c2c1`, the bioavailability in data set [2] is 73%. Also, the figures for the 50% inhibitory concentration (IC50) in [3] and in [1] were 0.007 µM and 0.3 µM, respectively. Moreover, the EC50 in data set [4] is 2.3 µM. The Papp in data set [5] is 41 ×10⁻⁶ cm/s. Also, in data set [6], the clearance worked out at 22 mL/min/kg. In addition, the half-life in data set [7] is 1.3 h. For the same molecule, the inhibition result in the data set with Rattus norvegicus [8] was “Dose-dependent effect”. The inhibition in vivo at 30 mg/kg in the data set with Rattus norvegicus [9] came to 57%. Also, the inhibition in vivo at 100 mg/kg in the data set on Rattus norvegicus [10] was found to be 91%. The concentration with Rattus norvegicus [11] came out at 5.7 µM; in the data set with Rattus norvegicus [12] it was 19 µM; in the data set with Rattus norvegicus [13] it was 54 µM; in the data set on Rattus norvegicus [14] it was 112 µM. The inhibition in vivo at 10 mg/kg with Rattus norvegicus [15] was found to be 2%.

On to `CN(C)[C@H]1CC[C@H](Nc2ncnc3ccc(C4CC4)cc23)CC1`, for which the IC50 came out at 0.012 µM in data set [3] and 2.5 µM in data set [1].

Consider `Cc1ccc2ncnc(N[C@H]3CC[C@H](N(C)C)CC3)c2c1`, for which the IC50 in data set [1] is 1.8 µM.

As for `N#Cc1ccc2ncnc(N[C@H]3CC[C@H](N)CC3)c2c1`, the half-inhibitory concentration (IC50) in [3] worked out at 0.032 µM; in [1] it was 1.4 µM.

Regarding `CN(C)[C@H]1CC[C@H](Nc2ncnc3ccc(C#N)cc23)CC1`, the IC50 in [1] amounted to 0.77 µM. Moreover, the concentration for a half-maximal effect (EC50) in data set [4] is 1.7 µM.

For `N#Cc1ccc2ncnc(N[C@H]3CC[C@H](N4CCC(F)(F)CC4)CC3)c2c1`, the IC50 in data set [1] was 0.2 µM.

In the case of `CN1CCN([C@H]2CC[C@H](Nc3ncnc4ccc(C#N)cc34)CC2)CC1`, the half-maximal inhibitory concentration (IC50) in [1] stood at 0.274 µM.

Regarding `N#Cc1ccc2ncnc(N[C@H]3CC[C@H](N4CCC4)CC3)c2c1`, the values for the IC50 in data set [3] and in [1] were 0.035 µM and 0.62 µM, respectively.

In the case of `CCc1ccc2ncnc(N[C@H]3CC[C@H](N(C)C)CC3)c2c1`, the IC50 was determined as 0.017 µM in data set [3] and 1.2 µM in [1].

As for `CNCCCCc1c(-c2cc(C)cc(C)c2)cnc2ccc(-c3cncc(O)c3)cc12`, the apparent permeability (Papp) in [5] is 11 ×10⁻⁶ cm/s.

Turning to `CN(C)[C@H]1CC[C@H](Nc2ncnc3ccc(C(F)(F)F)cc23)CC1`, the IC50 in data set [1] came out at 0.62 µM.

As for `CS(=O)(=O)N1CCN([C@H]2CC[C@H](Nc3ncnc4ccc(C#N)cc34)CC2)CC1`, the IC50 in [1] amounted to 0.33 µM.

Take `COc1ccc2ncnc(N[C@H]3CC[C@H](N(C)C)CC3)c2c1`: the results for the IC50 in data set [3] and in data set [1] were 0.016 µM and 1.1 µM, respectively.

For the molecule `CN(C)[C@H]1CC[C@H](Nc2ncnc3ccc(Br)cc23)CC1`, the IC50 was found to be 0.01 µM in data set [3] and 0.29 µM in data set [1].

As for `N#Cc1ccc2ncnc(N[C@H]3CC[C@H](N4CCCC4)CC3)c2c1`, the concentration for half-maximal inhibition (IC50) in data set [1] came to 0.3 µM.

In the case of `CN(C)[C@H]1CC[C@H](Oc2ncnc3ccc([N+](=O)[O-])cc23)CC1`, the IC50 in data set [3] came to 0.058 µM; in data set [1] it was 2 µM.

Consider `C[C@@H]1C[C@H]2[C@@H]3CCC4=CC(=O)C=C[C@]4(C)[C@@]3(F)[C@@H](O)C[C@]2(C)[C@@]1(O)C(=O)CO` [DEXAMETHASONE], for which the concentration with Rattus norvegicus [11] was determined as 10 µM. Moreover, the inhibition in vivo at 3 mg/kg in the data set on Rattus norvegicus [16] came out at 86%.

With `CC(C)c1ccc2ncnc(N[C@H]3CC[C@H](N(C)C)CC3)c2c1`, the IC50 in [3] worked out at 0.016 µM; in data set [1], 1.1 µM.
